In patent US4234511A, “Dialkylamino-N,N-bis(phosphonoalkylene)alkylamines and use in aqueous systems as precipitation and corrosion inhibitors” (Buckman Laboratories, Inc., priority 1979, dated 1980):
Where a name gives a salt, the structure may show the parent alone.

How the values were obtained:
[1] = Calcium Carbonate Antiprecipitation Tests; conditions: pH 9, 25° C., approx. 18 hours
Description: To evaluate the effect of the compounds of the present invention on the precipitation of calcium carbonate, measured volume of stock solution (prepared with demineralized water) of the phosphonic acids or their reaction product with epichlorohydrin were added to 100-ml portions of a calcium hydroxide solution (0.40 g Ca(OH)2 per liter). Then 100 ml of a sodium bicarbonate solution (0.50 g NaHCO3 per liter) was added to each portion of calcium hydroxide solution. The pH of each portion was adjusted to 9.00 (±0.05). The test solutions were then agitated on a rotary shaker for approximately 18 hours at a temperature of 25° C. At the end of this time insoluble material was removed by filtration with Whatman No. 4 filter paper and the calcium ion concentration in the filtrate was determined by titration with a standard ethylenediamine tetraacetic acid solution. The percent inhibition (Table 1) was calculated by comparing the test solution values with two controls included in every test series.

[2] = Corrosion inhibition, circulating Memphis tap water with mild steel coupons; conditions: initial pH 7.5, 50° C., three days
Description: The test apparatus included a sump, a flow circuit, a circulating pump and a heater. […] The test fluid was Memphis tap water with the pH adjusted to 7.5 and the temperature was maintained at 50° C.±2° C.
The test fluid containing various concentrations of the compositions described herein was circulated continuously through the system containing the test coupons for a period of three days. At the end of this period, the coupons were removed, cleaned and weighed. The corrosion rates were calculated in milligrams per square decimeter per day (MDD).

Structure (SMILES)	Inhibition of Calcium Carbonate Precipitation, percent inhibition ([1]; 1.0 parts per million)	Inhibition of Calcium Carbonate Precipitation, percent inhibition ([1]; 2.0 parts per million)	Inhibition of Calcium Carbonate Precipitation, percent inhibition ([1]; 3.0 parts per million)	Inhibition of Calcium Carbonate Precipitation, percent inhibition ([1]; 4.0 parts per million)	Inhibition of Calcium Carbonate Precipitation, percent inhibition ([1]; 5.0 parts per million)	Inhibition of Calcium Carbonate Precipitation, percent inhibition ([1]; 6.0 parts per million)	Inhibition of Calcium Carbonate Precipitation, percent inhibition ([1]; 7.0 parts per million)	Inhibition of Calcium Carbonate Precipitation, percent inhibition ([1]; 8.0 parts per million)	Inhibition of Calcium Carbonate Precipitation, percent inhibition ([1]; 9.0 parts per million)	Inhibition of Calcium Carbonate Precipitation, percent inhibition ([1]; 10.0 parts per million)	Corrosion rate, Average ([2]; 50 parts per million)	Corrosion rate, Copper Couple ([2]; 50 parts per million)	Corrosion rate, Sump 1 ([2]; 50 parts per million)	Corrosion rate, Sump 2 ([2]; 50 parts per million)	Corrosion Inhibition, Percent ([2]; 100 parts per million)	Corrosion rate, Average ([2]; 100 parts per million)	Corrosion rate, Copper Couple ([2]; 100 parts per million)	Corrosion rate, Sump 1 ([2]; 100 parts per million)	Corrosion rate, Sump 2 ([2]; 100 parts per million)	further results
CN(C)CCCN(CP(=O)(O)O)CP(=O)(O)O [A, 3-(N,N-Dimethylamino)-N',N'-bis(phosphonomethyl)propylamine Hydrochloride]	0%	0%	4.2%	41.6%	50.9%	54.5%	64.1%	60.6%	69.4%	67.5%	1.51 Miligrams per decimeter per day	3.01 Miligrams per decimeter per day	1.33 Miligrams per decimeter per day	0.18 Miligrams per decimeter per day	99.5%	1.24 Miligrams per decimeter per day	1.06 Miligrams per decimeter per day	0.89 Miligrams per decimeter per day	1.77 Miligrams per decimeter per day	Corrosion Inhibition, Percent ([2]; 50 parts per million): 99.4%; Corrosion Inhibition, Percent ([2]; 200 parts per million): 99.2%; Corrosion rate, Average ([2]; 200 parts per million): 2.13 Miligrams per decimeter per day; Corrosion rate, Copper Couple ([2]; 200 parts per million): 3.90 Miligrams per decimeter per day; Corrosion rate, Sump 1 ([2]; 200 parts per million): 1.15 Miligrams per decimeter per day; Corrosion rate, Sump 2 ([2]; 200 parts per million): 1.33 Miligrams per decimeter per day
CN(C)CCN(CP(=O)(O)O)CP(=O)(O)O [F, 2-Dimethylamino-N',N'-bis(phosphonomethyl)ethylamine Hydrochloride]	6.2%	17.8%	32.3%	35.3%	49.5%	55.6%	65.2%	69.6%	77.7%	78.6%	35.46 Miligrams per decimeter per day	40.08 Miligrams per decimeter per day	12.94 Miligrams per decimeter per day	53.37 Miligrams per decimeter per day	99.4%	1.57 Miligrams per decimeter per day	1.95 Miligrams per decimeter per day	1.24 Miligrams per decimeter per day	1.51 Miligrams per decimeter per day	Corrosion Inhibition, Percent ([2]; 150 parts per million): 99.6%; Corrosion rate, Average ([2]; 150 parts per million): 1.06 Miligrams per decimeter per day; Corrosion rate, Copper Couple ([2]; 150 parts per million): 0.98 Miligrams per decimeter per day; Corrosion rate, Sump 1 ([2]; 150 parts per million): 1.15 Miligrams per decimeter per day; Corrosion rate, Sump 2 ([2]; 150 parts per million): 1.06 Miligrams per decimeter per day
